pEC50: −log10 of the molar value. Activity calls are given as the source filed them.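 The calls were made as follows: active = EC50 under a set limit in control cells lacking the mosquito receptor, marking a fluorescence artifact; inactive = the rest.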 Where only a bound is given, the exact number is not on record here.

As usually defined, the EC50 is the concentration giving half of the maximal effect. By pEC50 is commonly meant −log10 of the EC50, conventionally taken in molar units.

This assay concerns the target HEK293 Galpha15/GCaMP6s without NPYLR7, calcium fluorescence. As to the kind of experiment: calcium response in NPYLR7-null HEK293 cells, dose response, counter-screen for mosquito NPYLR7 agonist project, cell-based, HEK293 lacking NPYLR7 (AID 1259426).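 Also: potency for a rise in fluorescence over baseline.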
`CC(=O)Oc1ccc(Cn2c(C)c(C(=O)NCc3ccc(C#N)cc3)sc2=O)cc1`: the EC50 is > 20 µM (inactive).
`CCN1C(=Cc2ccc3cc(C)ccc3[n+]2CC)Sc2ccccc21`: the pEC50 was 6.04.
Consider `Cc1cc(C=C2Sc3ccccc3N2C)cc(C)[n+]1Cc1ccncc1`, for which the pEC50 was 4.72.
As to `COc1cc(C(=O)N2CCOC(c3ccccc3)C2)cc(OC)c1C` (stereo not given), the EC50 is > 20 µM (inactive).
For the compound `CNC[C@H](O)c1ccc(O)c(O)c1`, the pEC50 was 7.41.
Take `Cc1ccc2nc(Cn3cnc4c(Cl)cc(Cl)cc4c3=O)cc(=O)n2c1`: the EC50 is > 20 µM (inactive).
Same read-out and setting: the same measure for `COc1ccc(C(=O)N(Cc2ccccc2)C2CCC(NC(=O)C3CCN(C(=O)c4ccccc4Cl)CC3)CC2)cc1` (stereo not given): > 20 µM (inactive); for `C[C@H](O)C(=O)C1=Nc2c(nc(N)[nH]c2=O)NC1`: > 20 µM (inactive); for `CC1(C)CC(=O)C2C(=Nc3[nH]c(=S)[nH]c(=O)c3C2c2ccc3c(c2)OCO3)C1` (stereo not given): > 20 µM (inactive).
As to `CN1CCN(Cc2c(O)ccc3c2O/C(=C\c2cc4cc(Br)ccc4o2)C3=O)CC1`, the pEC50 was 4.90.
As to `N#CC1C(=N)SC(=N)C(C#N)C1c1cccc(F)c1` (stereo not given), the negative-log EC50 (pEC50) was 5.15.
As for `COc1ccc(C(=O)C=Cc2cc(OC)c(O)c(OC)c2)cc1F`, the pEC50 is 5.23.
As to `COc1cc(C=C2SC(=S)NC2=O)cc(Br)c1O`, the EC50 is > 20 µM (inactive).
Take `CCCCN(CC(=O)Nc1c(-c2ccccc2)c(C)nn1-c1ccccc1C)S(=O)(=O)c1ccc(F)cc1`: the EC50 was > 20 µM (inactive).
With `CC(=NNc1ncnc2sc(C)c(C)c12)c1ccccn1`, the EC50 result was “inactive”.
Same read-out and setting: the same measure for `CCOC(=O)C1CCN(C(=O)CC(c2cccc(C(F)(F)F)c2)c2c[nH]c3c(CC)cccc23)CC1` (stereo not given): > 20 µM (inactive).
Take `CC(=O)NN1C(=O)/C(=C\c2ccc(O)cc2)SC1=S`: the pEC50 is 5.44.
Same read-out and setting: the value for `N#CC(C#N)=C1C=C2C=C(N3CCCCC3)CCC2CC1` (stereo not given) was above 7.41; that for `CCOc1cc2c(cc1C=C(C#N)C#N)OC(C)C2` (stereo not given) was 4.83; that for `CC(C)NCC(O)c1ccc(O)c(O)c1` (stereo not given) was above 7.41.
For the compound `COc1ccc(CC2c3cc(OC)c(OC)cc3CC[N+]2(C)CCC(=O)OCCCCCOC(=O)CC[N+]2(C)CCc3cc(OC)c(OC)cc3C2Cc2ccc(OC)c(OC)c2)cc1OC` (stereo not given), the EC50 is > 20 µM (inactive).
With `CC(C)C(C(=O)O)N1C(=O)/C(=C/c2ccc(N(C)C)cc2)SC1=S` (stereo not given), the pEC50 is 4.92.
As to `Nc1c(S(=O)(=O)O)cc2c3c(cccc13)C(=O)N(CCO)C2=O`, the pEC50 is 6.81.
In the case of `O=C1C(=Cc2ccc(OC(F)F)cc2OC(F)F)Oc2cc(O)ccc21`, the EC50 was > 20 µM (inactive).
On the same count and under the same terms, the value for `N#Cc1cc(C(=O)c2cc(Cl)cc(Cl)c2O)cn(-c2nccs2)c1=O` was > 20 µM (inactive).
For `CSc1nc(N)c2ncn([C@@H]3O[C@H](COP(=O)(O)OP(=O)(O)OP(=O)(O)O)[C@H](O)C3O)c2n1` (stereo not given in full), the pEC50 was 6.40.
As to `COc1cc(C=C(C#N)S(=O)(=O)c2ccc(F)cc2)cc(Br)c1O`, the EC50 was > 20 µM (inactive).
For `CN1C(=CC=C2C(=O)CC(C)(C)CC2=O)C(C)(C)c2ccccc21`, the negative-log EC50 (pEC50) is 4.88.
Take `O=C(CNCc1ccccc1)N1CC(=O)N(c2cccc(Cl)c2)C1`: the EC50 is > 20 µM (inactive).
Take `CCOCCCN1C(=O)C(=Cc2ccccc2O)NC1=S`: the pEC50 is 7.05.
With `Oc1ccc(-c2onc3ccc(Cl)cc23)cc1`, the EC50 is > 20 µM (inactive).
As for `O=C(O)c1ccccc1-c1c2cc(Br)c(=O)cc-2oc2[c]([Hg])c(O)c(Br)cc12`, the pEC50 is above 7.41.
With `O=C1NC(=S)SC1=Cc1cc(O)c(O)c(Cl)c1`, the EC50 is > 20 µM (inactive).
Same read-out and setting: the same measure for `COc1ccc(NC(=O)C2C=CCN2)cc1NC(=O)c1ccco1` (stereo not given): > 20 µM (inactive).
Turning to `O=c1oc2c(CN3CC4CC(C3)c3cccc(=O)n3C4)c(O)ccc2cc1-c1nc2ccccc2s1` (stereo not given), the pEC50 was 4.87.
With `COc1ccc2nc(C=Cc3cc(Br)c(O)c(OC)c3)sc2c1`, the EC50 was > 20 µM (inactive).
Turning to `Cc1oc(-c2cccc(NC(=O)CC(C)C)c2)nc1CNC(=O)Cc1cc(F)cc(F)c1`, the EC50 is > 20 µM (inactive).
Turning to `COc1ccc(NCc2ccc(OC)c(Br)c2)cn1`, the pEC50 is 5.29.
`COc1ccc(NC(=O)CN2C(=O)c3ccccc3NC23CCN(C)CC3)cn1`: the EC50 is > 20 µM (inactive).
As to `COC(=O)C1CCN(S(=O)(=O)c2c(F)cc(F)cc2Br)CC1`, the EC50 was > 20 µM (inactive).
Take `COc1cc(OC)cc(C(=O)N2CCN(C(C(=O)Nc3ccc(NC(C)=O)cc3)C3CCCC3)CC2)c1` (stereo not given): the EC50 is > 20 µM (inactive).
On to `CS(=O)(=O)c1ccc(-c2cccc3c2OC(CNC(=O)c2cc[n+]([O-])cc2)C3)cc1` (stereo not given), for which the EC50 was > 20 µM (inactive).
In the case of `COc1ccc2oc(=O)c(-c3nnc(Nc4cc(Cl)ccc4OC)s3)cc2c1`, the EC50 was > 20 µM (inactive).
Consider `COc1ccc(C(C)NS(=O)(=O)c2ccc(Cl)cc2C(F)(F)F)cc1F` (stereo not given), for which the pEC50 is 4.82.
Turning to `CC(=O)NCCc1ccc(O)c(O)c1`, the pEC50 is 7.14.
With `CN(Cc1ccccc1)c1cc(Oc2cccc(Cl)c2)ncn1`, the EC50 is > 20 µM (inactive).
As for `COc1cc(C=C(C#N)S(=O)(=O)c2cc(Cl)ccc2Cl)cc(Br)c1O`, the pEC50 is 5.19.
On the same count and under the same terms, the value for `Cc1cc(C=C2Sc3ccccc3N2C)cc(C)[n+]1-c1ccccc1` was 5.82; that for `CCN=c1cc2oc3cc(NCC)c(C)cc3c(-c3ccccc3C(=O)OCC)c-2cc1C` was 7.02.
On to `CCOC(=O)c1nc2ccccc2nc1N1CCN(C(=O)N2CCOCC2)CC1`, for which the EC50 was > 20 µM (inactive).
As to `Cc1ccc(CN(Cc2ccc(F)cc2)C(=O)CNCCN2CCOCC2)s1`, the EC50 was > 20 µM (inactive).
With `CC(C)c1nc(NC(=O)c2[nH]ncc2Br)n(C)n1`, the pEC50 was 5.82.
Turning to `Cc1cc2nc3c(=O)[nH]c(=O)nc-3n(C[C@H](O)[C@H](O)[C@H](O)CO)c2cc1C`, the pEC50 was 6.29.
For the compound `N#CC(C#N)=C1C=C2C=C(N3CCN(Cc4ccccc4)CC3)CCC2CC1` (stereo not given), the EC50 was > 20 µM (inactive).
In the case of `Cc1ccc(NC2C=CS(=O)(=O)C2)cc1C` (stereo not given), the EC50 is > 20 µM (inactive).
Regarding `Cc1nc(Sc2nnc3ccccn23)c2c3c(sc2n1)CCCC3`, the EC50 was > 20 µM (inactive).
Take `O=C1SC(Nc2ccc(I)cc2)C(=O)N1c1ccccc1` (stereo not given): the pEC50 is 4.74.
Regarding `O=C1NC(c2ccc3c(c2)OCO3)C(C(=O)c2ccccc2)C(O)(C(F)(F)F)N1` (stereo not given), the EC50 was > 20 µM (inactive).
On to `Cc1ccc(CNC(=O)NC(c2ccc3c(c2)OCCCO3)C(C)C)cc1F` (stereo not given), for which the EC50 is > 20 µM (inactive).
Regarding `N#Cc1c(N)nc2c(c1N)C(Sc1ccccc1)c1ccc(O)cc1O2` (stereo not given), the pEC50 was above 7.41.
For the compound `CN(Cc1cnc2ccccc2n1)C(=O)C1CC2(CCNCC2)CN1` (stereo not given), the EC50 is > 20 µM (inactive).
Turning to `CC(C)CN1C(=O)C(=Cc2c(N3CCN(CCO)CC3)nc3ccccn3c2=O)SC1=S`, the EC50 was > 20 µM (inactive).
In the case of `O=C(COc1ccccc1)N1CCCC(CNS(=O)(=O)c2cccs2)C1` (stereo not given), the EC50 was > 20 µM (inactive).
On to `FC(F)(F)c1cc(-c2cccs2)nc2ncnn12`, for which the pEC50 is 4.74.
Consider `CCOC(=O)N1CCN(c2ccc(/C=C(\C#N)c3nc4ccccc4n3C)o2)CC1`, for which the EC50 was > 20 µM (inactive).
For `Cc1nc2ncccc2cc1C(=O)N1CCC2(CCNC(=O)CC2)CC1`, the EC50 was > 20 µM (inactive).
On the same count and under the same terms, the same measure for `C(=Cc1ccccc1)C=NNc1ncnc2ccccc12`: > 20 µM (inactive); for `COCCCN(Cc1ccc(C(C)(C)C)cc1)Cc1cccn1Cc1cccc(C)c1`: > 20 µM (inactive).
`CN(C)c1ccc(/C=C2/SC(=S)N(CC(=O)O)C2=O)cc1`: the pEC50 is 5.16.
Regarding `N#C/C(=C\c1ccc(O)c(O)c1)C(=O)Nc1ccccc1`, the EC50 was > 20 µM (inactive).
Regarding `O=C(N=Nc1c(O)[nH]c2ccc(Br)cc12)c1ccccc1Cl`, the EC50 was > 20 µM (inactive).
As to `FC(F)(F)c1ccc(-c2nc3ccc(Cl)cn3c2NCc2ccccc2)cc1`, the EC50 was > 20 µM (inactive).
`O=C(O)CCN1C(=O)/C(=C/c2ccc(O)cc2)SC1=S`: the pEC50 was 5.57.
`CCN(CC)c1ccc(/C=C2\SC(=S)N(CC(=O)O)C2=O)c(O)c1`: the pEC50 was 5.94.
On to `N#CC(C#N)=Cc1ccc(O)c(O)c1`, for which the EC50 was > 20 µM (inactive).
As for `COc1ccccc1Oc1nc2ccccn2c(=O)c1/C=C(\C#N)c1nc2ccccc2s1`, the EC50 is > 20 µM (inactive).
`COc1ccc(OC)c(CCNc2nc3cnc(-c4cccc5ccccc45)cc3n2C)c1`: the EC50 is > 20 µM (inactive).
Consider `N#CC(C#N)=C1C=C2C=C(N3CCc4ccccc4C3)CCC2CC1` (stereo not given), for which the EC50 is > 20 µM (inactive).
The same measure, in the same setting: the value for `COCCOc1ccc(NC(=O)N(C)C(C)C2(C)CC2)cn1` (stereo not given) was > 20 µM (inactive).
On to `CC(=O)Oc1c(/C=C(\C#N)C(N)=O)[nH]c2ccccc12`, for which the pEC50 was 5.21.
As for `C=C(C)Cn1c(C(=O)N2CCN(C(=O)CCC(=O)OCC)C(C)C2)cc2ccoc21` (stereo not given), the EC50 is > 20 µM (inactive).
On to `Cc1cc2nc3c(=O)[nH]c(=O)nc-3n(CC(O)C(O)C(O)CO)c2cc1C` (stereo not given), for which the pEC50 was above 7.41.
Regarding `Cc1cc(C)c2cc3c(cc2n1)CCN3CC(O)CO` (stereo not given), the pEC50 was 5.56.
Consider `CCCC[n+]1c(C)cc(C=C2Sc3ccccc3N2CC)cc1C`, for which the pEC50 is 4.73.
Regarding `COc1cc(OC)c(C2=NOC3(CC(=O)N(c4cccc(Cl)c4)C3=O)C2)cc1OC` (stereo not given), the EC50 was > 20 µM (inactive).
Same read-out and setting: the same measure for `COc1ccccc1CCNC(=O)c1ccc(Cn2c(C)nc3ccccc32)o1`: > 20 µM (inactive).
On to `O=C1/C(=C/c2cc3cc(Br)ccc3o2)Oc2c1ccc(O)c2CN1CCN(CCO)CC1`, for which the pEC50 is 5.18.
For `N#CC1C(=N)SC(=N)C(C#N)C1c1cccc(O)c1` (stereo not given), the pEC50 was 5.00.
For `O=c1[nH]c(CCl)nc2sc3c(c12)CCN(Cc1ccccc1)C3`, the EC50 is > 20 µM (inactive).
In the case of `O[C@@H]1CN(Cc2ccncc2Cl)CC[C@H]1c1ccc2c(c1)OCO2`, the EC50 was > 20 µM (inactive).

Values taken from PubChem BioAssay AID1259426 (Fisher Drug Discovery Resource Center, 2018).
